According to patent publication US20070128124A1 (published 2007):
Read-outs that look alike come from different tables or passages of the source.

Key:
MTB strain H37Rv [1] = format: cell-based, Mycobacterium tuberculosis
[2] = tested on: tuberculosis bacilli in the lungs; test: Chronic murine infection model, efficacy versus duration of infection; format: in vivo, mouse
MTB strain H37Rv [3] = format: cell-based, Mycobacterium tuberculosis; remark: listed apart in the source
MTB strain H37Rv [4] = format: cell-based, Mycobacterium tuberculosis; remark: listed apart in the source
[5] = cited from earlier work
MTB = settings: against MTB; cited from earlier work
[6] = renal and ototoxicity, parenteral use; cited from earlier work
[7] = cited from earlier work; remark: listed apart in the source
MTB strain H37Rv [8] = tested on: MTB strain H37Rv; set-up: species or system C57/BL6 mice; settings: mouse, in vivo
[9] = 10 times MIC, after 18-24 hours of incubation, stationary phase

With `NNC(=O)c1ccncc1` [isoniazid] the “time at which an effect begins” value (MTB strain H37Rv [1]) was 48 h, the “RLU reduction, stationary phase” value (MTB strain H37Rv [1]; [9]) was “no significant effect” and the “reduction of bacillary load in the lungs” value ([2]; 13 weeks post infection) was 0.5 logs. For the same compound, the “reduction of lung CFU” value ([2]; two weeks post infection) was 2 logs, the “decrease in RLU from untreated cultures at peak efficacy” value (shortened to “decrease in RLU from untreated cultures”) (MTB strain H37Rv [3]) was ~1.5 log and the “time of peak efficacy (RLU endpoint)” value (MTB strain H37Rv [3]) was 72 h. For the same compound, the “reduction of CFUs” value (MTB strain H37Rv [4]) was “no effect”.

For `CO[C@H]1/C=C/O[C@@]2(C)Oc3c(C)c(O)c4c(O)c(c(/C=N/N5CCN(C)CC5)c(O)c4c3C2=O)NC(=O)/C(C)=C\C=C\[C@H](C)[C@H](O)[C@@H](C)[C@@H](O)[C@@H](C)[C@H](OC(C)=O)[C@@H]1C` [rifampicin], the “RLU reduction, stationary phase” value (MTB strain H37Rv [1]) was 0.3 logs, the “RLU reduction, log phase growth” value (MTB strain H37Rv [3]) was 2.25 logs and the “decrease in RLU from untreated cultures” value (MTB strain H37Rv [3]) was 3.5 log. The “reduction of CFUs” value (MTB strain H37Rv [4]) was 0.5 logs.

For Capreomycin, the solubility in water [5] is given as “soluble in water”, the “minimum inhibitory concentration (MIC)” value (MTB) is given as 2.5 µg/mL and the “RLU reduction, stationary phase” value (MTB strain H37Rv [1]; [9]) is given as “approximately 2 logs”. For the same compound, the “reduction in efficacy from log phase cultures” value (MTB strain H37Rv [1]; stationary versus log phase, RLU at 24 hrs) was ~15%, the “patients in whom toxicities occur” value [6] was “up to 10 % of patients” and the “maximum serum concentration (Cmax)” value ([7]; human, reached two hours after intramuscular injection) was 25000 ng/mL. The oral absorption ([7]; oral) was “quite poor”, the “reduction in lung CFU, aerosol treated group” value (MTB strain H37Rv [8]) was ~2.5 logs and the “reduction in lung CFU, subcutaneous administered group” value (MTB strain H37Rv [8]; sc) was 1 log. For the same compound, the “RLU reduction, log phase growth” value (MTB strain H37Rv [3]) was “approximately 2 logs”, the “decrease in RLU from untreated cultures” value (MTB strain H37Rv [3]) was 3.5 log and the “efficacy compared with isoniazid and rifampicin” value (MTB strain H37Rv [3]) was “superior to that of isoniazid and is as efficacious as rifampicin”. For the same compound, the “reduction of CFUs” value (MTB strain H37Rv [4]) was 2.5 logs.
